Data on 3 molecules can be found in BindingDB's records for doi:10.1016/s0165-0270(00)00358-7 (University of Nebraska, 2001).

The structures appear in SMILES notation.

This assay has as its target T1, Alpha-2C adrenergic receptor (Rattus norvegicus, UniProt P22086).
T1 sequence (P22086 whole entry): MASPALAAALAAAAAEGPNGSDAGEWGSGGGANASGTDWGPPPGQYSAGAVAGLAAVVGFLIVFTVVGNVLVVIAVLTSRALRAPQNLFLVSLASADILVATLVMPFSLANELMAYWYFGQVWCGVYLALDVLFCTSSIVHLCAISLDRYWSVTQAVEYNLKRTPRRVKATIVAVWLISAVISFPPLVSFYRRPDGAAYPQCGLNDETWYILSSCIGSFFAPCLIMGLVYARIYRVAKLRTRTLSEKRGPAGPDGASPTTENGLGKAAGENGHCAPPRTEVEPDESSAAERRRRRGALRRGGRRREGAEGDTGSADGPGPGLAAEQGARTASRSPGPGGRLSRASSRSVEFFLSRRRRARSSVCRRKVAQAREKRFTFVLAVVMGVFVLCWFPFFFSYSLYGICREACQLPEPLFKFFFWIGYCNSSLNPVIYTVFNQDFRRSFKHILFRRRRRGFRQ
Broadly, the Ki is the dissociation constant of the complex between target and ligand, obtained from inhibition or displacement. A low value points to tighter binding. `[N-]=[N+]=Nc1ccc(NP(=O)(O)OP(=O)(O)OP(=O)(O)OC[C@H]2O[C@@H](n3cnc4c(=O)[nH]c(N)nc43)[C@H](O)[C@@H]2O)cc1` [CAS_59803-98-4] displayed an inhibition constant Ki of 1.6 nM. To `Nc1ncnc2c1ncn2[C@@H]1O[C@H](COP(=O)(O)OP(=O)(O)OP(=O)(O)O)[C@@H](O)[C@H]1O` belongs 3.1 nM; to `Nc1nc2c(ncn2[C@@H]2O[C@H](COP(=O)(O)OP(=O)(O)NP(=O)(O)O)[C@@H](O)[C@H]2O)c(=O)[nH]1` [CAS_59803-98-4], 6.2 nM.
